{
  "source": "patent US11911464B2",
  "about": "“Anti-parasitic immunological compositions” (Prommune, Inc., priority 2018, dated 2024)",
  "key": {"[1]": {"system": "bone marrow-derived BALB/c DCs", "assay": "Murine dendritic cell activation (cytokine release) by EP67 vaccines", "type": "cell-based, mouse", "settings": "6 hr exposure", "excerpt": "A subset of vaccines were developed with murine DC's from BALB/c bone marrow, and examined for cytokine response. […] Bone marrow-derived BALB/c DCs were separately exposed to EP67-containing vaccines #1 (TgSAG1) and #2 (TgGRA1) (Example 3), and compared to sham exposure (media). […] KC/GRO, also known as CXCL1, is a potent neutrophil chemotactic cytokine. Increases in INF-gamma, IL-1b, and TNF-α were also observed, and are in-line with expectations of EP67 engagement of the C5a receptor and subsequent activation of dendritic cells."}, "[2]": {"system": "DCs", "assay": "Surface activation markers of exposed dendritic cells by flow cytometry", "type": "cell-based, mouse", "settings": "6 hours exposure", "description": "[…] vaccines were investigated and found to increase surface activation markers of exposed white blood cells, such as DCs shown in FIG. 10, which were exposed for 6 hours to Vaccines #1 (TgSAG1) and #2 (TgGRA1). Following exposure, cells were fixed and stained with antibodies to measure cell surface markers of intact cells by flow cytometry."}, "[3]": {"system": "human monocytes", "assay": "Differentiation of human peripheral blood monocytes (morphology)", "type": "cell-based", "settings": "50 μg/ml, 48 hrs", "excerpt": "EP67 Differentiates Human Peripheral Blood Monocytes to Cells with Phenotypes Characteristic of Macrophages/DCs."}, "[4]": {"system": "human monocyte-derived macrophages and DCs", "assay": "Cytokine release from human macrophages and DCs", "type": "cell-based", "settings": "50 μg/ml, after 24 hours of incubation", "description": "Human monocyte-derived macrophages and DCs were incubated with EP67 (50 μg/ml) and scrambled EP67 (50 μg/ml) for 6 and 24 hours. Supernatants were collected and analyzed for the presence of the following cytokines: IL-1beta, IL-2, IL-4, IL-6, IL-10, IL-12p70, IL-13, IL-15, TNF-alpha, and IFN-gamma. […] It is worth noting that the prominent cytokines released at 6 and 24 hours in response to EP67 (IL-1beta, IL-2, IL-6, and TNF-alpha) represent a TH1/pro-inflammatory bias relative to the TH2/anti-inflammatory cytokines (IL-4, IL-5, IL-10, and IL-13). This TH1 bias is in keeping with earlier observations with EP67 and is an important immunologic component for an effective immune response to T. gondii."}, "[5]": {"system": "human monocytes and monocyte-derived dendritic cells", "assay": "Multiplex cytokine release from human monocytes and monocyte-derived dendritic cells (EP67 analogues)", "type": "cell-based", "settings": "50 μg/ml, 6 and 24 hours", "excerpt": "Cytokine Analysis. Considerable time was spent in learning the methods for the rapid, efficient, and high throughput method of cytokine analysis using a multiplex instrument for large panels of cytokines (MesoScale QuickPlex SQ 120). With this instrument, we tested the EP67- and analogue-mediated release of a pro-inflammatory and anti-inflammatory panel of cytokines (IL-1beta, IL-2, IL-4, IL-6, IL-10, IL-12p70, IL-13, IL-15, TNF-α, and IFN-gamma) from human monocytes and monocyte-derived dendritic cells over the course of 6 and 24 hours of exposure 50 μg/ml EP67, scrambled EP67 (scEP67), and EP67 analogues (EP144, EP146, and EP147)."}, "[6]": {"system": "bone marrow-derived mouse dendritic cells", "assay": "qPCR detection of cytokine expression following exposure to EP67", "type": "cell-based", "settings": "EP67 50 μg/ml, 24 hrs, vs PBS controls, normalized to Actin B", "description": "Free EP67 (unattached to any epitope) was used as a control to stimulate murine bone marrow-derived dendritic cells (See Table 1 below). […] Testing these and additional cytokines (at the gene and protein-expression levels) against all of the synthesized and control vaccines is carried out. Similarly, we will also be analyzing surface marker expression indicative of DC activation.\nEP67 (50 μg/ml) was incubated with bone marrow-derived mouse dendritic cells (24 hrs) following in vitro maturation. Fold changes in expression were compared to PBS controls and normalized to Actin B gene expression. Three replicates were analyzed per gene. […] A positive control, bacterial LPS, was also evaluated and produced upregulation of at least 20-fold above PBS controls for all evaluated cytokines."}, "[7]": {"system": "human monocytes", "assay": "Surface marker immunophenotype of human monocytes incubated with EP67", "type": "cell-based", "settings": "50 μg/ml, over 7 days", "description": "EP67 Differentiates Human Peripheral Blood Monocytes to Cells with Immunophenotypes Characteristic of Macrophages/DCs. Human monocytes were incubated with EP67 (50 μg/ml) and surface markers analyzed over the course of 7 days."}, "[8]": {"system": "murine splenocytes", "assay": "Cytokine release from murine splenocytes", "type": "cell-based, mouse", "settings": "50 μg/ml", "description": "Splencocytes were obtained from normal Balb/c mice (ca. 2 months) and aged (ca. 17 months) sentinel mice of undetermined background (a gift from the University of Nebraska Medical Center Animal Facility). Spelocytes were cultured in the presence of EP67 and scrambled EP67 (50 μg/ml) for 24 hours, supernatants harvested, and analyzed for the presence of IL-1beta, IL-2, IL-4, IL-5, IL-6, KC/GRO, IL-10, IL-12p70, TNF-alpha, and IFN-gamma. […] Splenocytes were not our original choice of APCs from mice to evaluate the effects of EP67/EP67-based vaccines, but they were chosen for this first assessment as a matter of convenience to help with getting our cell culture protocols and assays established and verified."}, "[9]": {"system": "RAW 264.7 cells", "assay": "TNF-alpha and IL-6 secretion from RAW 264.7 cells", "type": "cell-based, mouse", "settings": "6 hr and 24 hr exposures", "description": "Although murine work was achieved using commercially available BALB/c cells, we felt it useful to explore additional cell options for in vitro evaluation of EP67 vaccine candidates. […] FIGS. 13A and 13B show the results of RAW 264.7 cells activated by EP67. In order to evaluate a cell line that is responsive to both EP67 and C5a (the complement protein from which the sequence of EP67 is derived), RAW 264.7 were tested for secretion of TNF-a and IL-6. For both cytokines, supernatants from both 6 hr and 24 hr exposures of recombinant C5a were high."}},
  "note": "Non-standard residues stand in square brackets, D forms with d. No end group written: not given here. NMeL = CN[C@@H](CC(C)C)C(=O)O",
  "data": [
    {"molecule": "SFKDILPKLSENPWQRRYSFKDMP(MeL)aR (SFKDILPKLSENPWQRRYSFKDMP[NMeL][dA]R; not fully specified; printed as SFKDILPKLSENPWQRRYSFKDMP(MeL)aR) [Vaccine 1]", "values": [
      {"measurement": "INF-gamma, IL-1b, and TNF-α release", "setting": "[1]", "value": "Increases"},
      {"measurement": "cytokine release compared to sham (media)", "setting": "[1]", "value": "cytokine release above the controls"},
      {"measurement": "CD80, CCR7, and MHC Class II molecules compared to control (media only)", "setting": "[2]", "value": "Elevation occurred"}
    ]},
    {"molecule": "EEVIDTMKSMQRDEERRYSFKDMP(MeL)aR (EEVIDTMKSMQRDEERRYSFKDMP[NMeL][dA]R; not fully specified; printed as EEVIDTMKSMQRDEERRYSFKDMP(MeL)aR) [Vaccine 2]", "values": [
      {"measurement": "INF-gamma, IL-1b, and TNF-α release", "setting": "[1]", "value": "Increases"},
      {"measurement": "cytokine release compared to sham (media)", "setting": "[1]", "value": "cytokine release above the controls"},
      {"measurement": "CD80, CCR7, and MHC Class II molecules compared to control (media only)", "setting": "[2]", "value": "Elevation occurred"},
      {"measurement": "CD80 increase compared to control (media only)", "setting": "[2]", "value": "> 80", "unit": "%"}
    ]},
    {"molecule": "(MeL)RMYKPaFDS ([NMeL]RMYKP[dA]FDS) [scrmbEP67, reference compound]", "values": [
      {"measurement": "conversion of monocytes into elongated, adhered macrophage/DC-like cells", "setting": "[3]", "value": "not"},
      {"measurement": "release of IL-1beta, IL-2, IL-6, IFN-gamma, and TNF-alpha", "setting": "[4]", "value": "not"}
    ]},
    {"molecule": "YSFKDM(Cha)LaR [EP147]", "values": [
      {"measurement": "cytokine release (pro- and anti-inflammatory panel)", "setting": "[5]", "value": "increase in cytokine release"}
    ]},
    {"molecule": "YSFKDMP(MeL)aR (YSFKDMP[NMeL][dA]R; not fully specified; printed as YSFKDMP(MeL)aR) [EP67]", "values": [
      {"measurement": "Fold change CXCL1 (a.k.a. KC) expression", "setting": "[6]", "value": 1.61, "unit": "fold"},
      {"measurement": "Fold change IL-6 expression", "setting": "[6]", "value": 3.40, "unit": "fold"},
      {"measurement": "Fold change IL-10 expression", "setting": "[6]", "value": 4.13, "unit": "fold"},
      {"measurement": "Fold change TNF alpha expression", "setting": "[6]", "value": 2.14, "unit": "fold"},
      {"measurement": "conversion of monocytes into elongated, adhered macrophage/DC-like cells", "setting": "[3]", "value": "converts rounded and non-adhered monocytes into elongated, adhered cells"},
      {"measurement": "expression of CD14, CD16, CD11b, and CD33", "setting": "[7]", "value": "moderately enhanced"},
      {"measurement": "expression of CD80 and CD206", "setting": "[7]", "value": "significantly enhanced"},
      {"measurement": "release of IL-1beta, IL-2, IL-6, IFN-gamma, and TNF-alpha", "setting": "[4]", "value": "induced the release"},
      {"measurement": "cytokine release relative to controls, aged sentinel mice splenocytes", "setting": "[8]; aged ca. 17 months", "value": "more pronounced effect"},
      {"measurement": "cytokine release relative to controls, Balb/c splenocytes", "setting": "[8]; normal Balb/c mice ca. 2 months", "value": "little effect"},
      {"measurement": "secretion of TNF-a and IL-6", "setting": "[9]", "value": "statistically significant (p<0.05) increases"}
    ]},
    {"molecule": "recombinant C5a: the complement protein from which the sequence of EP67 is derived (protein, UniProt P01031 678-751, looked up, C5a anaphylatoxin) C5a anaphylatoxin: TLQKKIEEIAAKYKHSVVKKCCYDGACVNNDETCEQRAARISLGPRCIKAFTECCVVASQLRANISHKDMQLGR", "values": [
      {"measurement": "secretion of TNF-a and IL-6", "setting": "[9]", "value": "high"}
    ]}
  ]
}
